Laboratory results from article PMC8750417, “Intracellular Amplifiers of Reactive Oxygen Species Affecting Mitochondria as Radiosensitizers” (Cancers, 2021).

Assays:
[1] = n-octanol/water partition coefficient (logP) by RP-TLC; assay type: physicochemical; settings: for logP (Hydrolyzed Prodrug): n-octanol/water partition coefficient of the hydrolyzed boronic acid (_BA) form of the prodrug named; for logP (Prodrug): n-octanol/water partition coefficient of the intact prodrug (or control 2c_c), RP-TLC, MOPS pH 7.4
Protocol: Determination of n-octanol/water partition coefficients (LogP) […]
mixture of dichloromethane/CH3OH at proper concentrations. Commercially available […]
7.4) (6/4, v/v) was used. The solvent migration distance was around 4.5 cm. The plates […]
and its distance was manually measured. All measurements were done in at least triplicate and average values were used in further calculations. All experiments were performed at ambient temperature (22 ± 2 °C). […]

[2] = Solubility in RPMI 1640 medium, precipitation seen by bright field optical microscopy; settings: DMSO 1%; for Solubility: 48 h incubation in RPMI 1640, FBS 5%, first signs of precipitation
Protocol: The latter medium was selected, since we used it for the cellular assays. […] Then we monitored the formation of (not detectable in the previous experiment) aggregated species in prodrug solutions that appeared transparent (concentrations < 50 µM) by using dynamic light scattering. […]
Solubility of drugs in aqueous buffers
Observing prodrug precipitation by using bright field optical microscopy […]
glutamine (1 %), and penicillin/streptomycin (1 %) was filled into 96-well microtiter plates (100 µL for each well) and compounds in DMSO stock solution (1 µL) were added. Each well was monitored by using bright field optical microscopy both immediately after […]

[3] = Prodrug-induced generation of ROS in cell free settings (DCFH/H2O2); settings: relative acceleration of the rate of DCFH fluorescence increase with H2O2, pH 7.4; FeSO4 = 1.0
Source text: As previously reported, the NAAF-prodrugs react with ROS like H2O2, first leading to the cleavage of the B-C-bond with the formation of the phenol derivatives (product 2c-1, Figure S49, SI). The latter compounds exist in equilibrium with the corresponding phenolates. The phenolates undergo the spontaneous 1,6-elimination of para-quinone methide (QM) followed by the release of CO2 with the formation of the N-alkylaminoferrocene NAAF drugs (product 2c-2, Figure S46, SI). By using electrospray ionization mass spectrometry (ESI–MS), we confirmed for one representative prodrug 2c that it reacts with H2O2 in cell free settings according to this common mechanism (ESI-MS, Figures S46–S48, SI). The NAAF is further oxidized by H2O2 or molecular oxygen with the generation of drug NAAF^+ and highly toxic HO• or/and O2^•−. Finally, the NAAF^+ is reduced by glutathione (GSH), thereby closing the catalytic cycle, in which the NAAF acts as a catalyst. We evaluated the formation of HO• or/and O2^•− by using 2′,7′-dichlorodihydrofluorescein (DCFH) as a probe (Table 1, Figure S49, SI). This probe is oxidized to the fluorescent product 2′,7′-dichlorofluorescein (DCF) in the presence of HO• or/and O2^•−. […] The lower activity of 2c and 2d correlates with their higher lipophilicity and their correspondingly higher propensity to form aggregates in aqueous solution (Figure S45, SI).
Prodrug-induced generation of ROS in cell free settings
2',7'-Dichlorodihydrofluorescein diacetate (DCFH-DA, 4.9 mg) was dissolved in DMF (100 μL) and mixed with aqueous NaOH (0.1 M, 900 μL). The resulting mixture was incubated for 30 min at 22 °C in the dark to obtain a stock solution of 2',7'-dichlorodihydrofluorescein (DCFH, 10 mM). Next, DCFH (1 µL ) was added to the solution containing MOPS buf fer (100 mM, pH 7.4), N,N,N'N' -e thylenediaminetetraacetic acid (EDTA , 10 mM) and glutathione (GSH , 5 mM) (1 mL, final concentration of DCFH 10 μM). The reaction mixture was heated to 37 °C and H2O2 (1 µL, final concentration 10 mM) was added. The reaction was monitored by fluorescence spectroscopy: λex = 501 nm, λem = 523 nm. After around 5 min, prodrugs (1 mM in DMF, 10 μL) or positive control FeSO4 (1 mM in water, 10 μL) were added, and the fluorescence monitoring was continued until the fluorescence signal growth was stalled after approximately 100 to 300 min. A representative kinetics of ROS […]
The data are presented in Table 1 as relative acceleration of the rate of the fluorescence increase, where the rate of the fluorescence increase obtained in the presence of positive control FeSO4 was set […]
y = a time + b (a = (dF/dt) , min-1)
Figure S49. Increase of the fluorescence intensity (λex = 501 nm, λem = 523 nm) upon oxidation of DCFH by H2O2 in the presence of FeSO4. Experimental details are provided in the description above. The time point of the FeSO4 addition is indicated with a black […]
(also on this page, place not known: ° C µL) buffer N,N,N'N'-ethylenediaminetetraacetic (EDTA, (GSH, ° C FeSO 4 (λ ex λ em Fluorescence (a.u.) (dF/dt)0, min -1 Addition of)
(1 picture or pasted object on this page, not shown here)

A2780 cells = assay: Cell viability, MTT assay, A2780; assay type: cell-based, human
Protocol: (§1) Determination of viability of cells in the presence of prodrugs and controls A2780 and BL-2 cells The medium was removed, and the cells were washed two times with DPBS, trypsinated, and resuspended in RPMI 1640 medium (A2780) supplemented with 5% FBS (for 24 h and 48 h assay) or 10% FBS (for 96 h assay) , 1% L-glutamine, and 1% penicillin/streptomycin.
(§2) A2780 cells: This suspension was spread in the wells of a 96 -well microtiter plate (25000 cells for A2780 per well per 100 μL) and left standing at 37 °C in the chamber filled with CO2 (5%) for overnight. Stock solutions of prodrugs of different concentra tions (1 μL, solvent dmso, final concentrations in wells were 2, 5, 10, 30, 50 μM) were added to the wells and incubated for specific periods of time. Four experiments were conducted for each concentration of the prodrug. Finally, 3-(4,5-dimethylthiazol-2-yl)-2,5-diphenyltetrazolium bromide (MTT, 20 μL of the solution prepared by dissolving MTT (5 mg) in DPBS buffer (1 mL)) was added to each well, incubated for 3 h, treated with sodium dodecyl sulfate (SDS) solution (90 μL, 10% solution in 0.01 M aqueous HC l), and incubated overnight. Afterward, the intensity of the absorbance at 590 nm was measured.
(§3) MTT is converted in live cells to blue dye with the absorbance maximum λ max at 590 nm.
The absorbance at 690 nm was taken as a baseline value. The baseline corrected absorbance at 590 nm (A(590 nm) − A(690 nm)) was applied to calculate the relative number of viable cells. IC50 values were determined by fitting the experimental data expressing the number of viable cells (%, Y-axis) versus drug concentration (μM, X-axis) with a line curve and the X-axis value corresponding to 50% viability was considered as IC50 value according to the line curve (Figure S50, Table S2). […]

[4] = test system: chronic lymphocytic leukemia (CLL) cells; assay: Viability of primary CLL cells (CellTiter Glo); assay type: cell-based, human; settings: viability of CLL vs MNC, 48 h; for 2c at 3.3 and 10 µM
Source text: Determination of viability of primary cancer (CLL) and normal (MNC) cells in the […]
Clinical samples from chronic lymphocytic leukemia (CLL) patients (N=6, CLL cells) and healthy donors (N=6; peripheral blood mononuclear cells, MNCs) were collected at the University Hospital Heidelberg, Germany. Informed consent was obtained in accordance with the Declaration of Helsinki. Sample collection and analysis was approved by the ethics committee of the University of Heidelberg (S-254/2016). Blood was separated by a Ficoll gradient (GE Healthcarey), and cells were cryopreserved. Drug sensitivity screening was performed in 384-well format (Greiner Bio One) with 10 different prodrug […]
4x10^4 cells per well. Cells were cultured in RPMI-1640 (Invitrogen) supplemented with penicillin/streptomycin (Invitrogen), L-glutamine (Invitrogen) and 10% pooled and heat inactivated AB-type human serum (Sigma-Aldrich). Cell viability was assessed by quantification of ATP (CellTiter Glo®, Promega) 48 hours after drug application.
Luminescence was measured on a Tecan Infinite F200 Microplate Reader. Viability was calculated as % of solvent (DMSO) treated control. Representative plots of cell viability

BL-2 cells = assay: Cell viability, MTT assay, BL-2; assay type: cell-based, human; settings: BL-2, 48 h incubation
Protocol: as §1, §2, §3
The absorbance at 690 nm was taken as a baseline value. The baseline corrected absorbance at 590 nm (A(590 nm) − A(690 nm)) was applied to calculate the relative number of viable cells. IC50 values were determined by fitting the experimental data expressing the number of viable cells (%, Y-axis) versus drug concentration (μM, X-axis) with a line curve and the X-axis value corresponding to 50% viability was considered as IC50 value according to the line curve (Figure S50, Table S2).
BL-2 cells: The cells were centrifuged, the medium was removed, and the cells were washed two times with DPBS and re-suspended in RPMI 1640 medium containing 5% (48 h incubation) or 10% FBS (96 h incubation), 1% L-glutamine, and 1% penicillin/ streptomycin. This suspension was spread in the wells of a 96-well microtiter plate (50000 cells per well per 100 μL). Other steps were identical to those was described in determination of viability of adherent cells (given above) (Table S3).

Jurkat cells = assay: Jurkat flow cytometry (AnnexinA5/PI viability, DiIC1(5) MMP, monobromobimane GSH, cell cycle); assay type: cell-based, human; settings: 48 h incubation
Protocol: Jurkat cells The cells were counted in MUSE Cell Analyzer using MUSE® Count &Viability Assay Kit (Merck-Millipore, Billerica, MA, USA) and adjusted to a density of 1.0 x 10^5/ml in RPMI 1640 medium (with 10% FCS and 1% glutamine). 9.000 cells per well per 90 µL were seeded into 96 well culture plates. The 30 mM prodrug stock solutions in DMSO were diluted to 300 µM, 100 µM, 30 µM and 10 µM in cell culture medium and 10 µL of the dilutions was pipetted to the cells, receiving final test concentrations of 30 µM, 10 µM, 3 µM and 1 µM. Every concentration was tested in triplicates. Cells with corresponding amounts of DMSO served as negative controls. After 48 h cells were mixed and 25 µL of […]
the cell suspension was incubated with 200 µL of freshly prepared staining solution, consisting of AnnexinA5-Fitc (1 µL), 1,1′,3,3,3′,3′-hexamethylindodicarbocyanine iodide (DiIC1(5), 0.4 µL) (both from ThermoFisher Scientific, Waltham, MA, USA), propidium iodide (PI, 67 ng) and monobromobimane (MBB, 33 µM, both from Sigma-Aldrich, Taufkirchen, Germany) per 1 ml Ringer’s solution (Fresenius Kabi AG, Bad Homburg, Germany). Cells were incubated for 20 min at 4°C and then analyzed in Gallios cytofluorometer™ (Beckman Coulter, Fullerton, CA, USA). Fitc and propidium iodide were excited at 488 nm; Fitc fluorescence was recorded on the FL1 sensor (525/38 nm band pass, BP) and propidium iodide fluorescence was detected on FL3 sensor (620/30 nm BP), DiIC1(5) fluorescence was excited at 638 nm and detected on FL6 sensor at 675/20 nm BP, and monobromobimane fluorescence was excited at 405 nm and detected on FL9 sensor at 430/40 nm BP. To eliminate any fluorescence bleed-through, electronic compensation was used. Data were analyzed employing Kaluza™ software Version 1.2 (Beckman Coulter, Fullerton, CA, USA) and processed in Microsoft Excel (Figures S51-S54, Table S5). Cells negative for Annexin A5-Fitc and propidium iodide were considered viable. IC50 values were determined by fitting the % values of Ax-PI- cells versus drug concentration with a sigmoidal curve using GraphPad Prism software. Reduced glutathione (an intracellular thiol) can be detected by monobromobimane, a dye that becomes fluorescent after non-enzymatic binding to thiols.[S3] For analysis of amount of mitochondrial membrane potential or reduced glutathione the mean fluorescence index (MFI) was determined from viable cells by gating on Ax -PI- events.
Table S5. Effects of the prodrugs on the viability of Jurkat cell lines (IC50 values) after 48

CC1(C)OB(c2ccc(COC(=O)N(Cc3cn(CCc4ccccc4)nn3)[c-]3cccc3)cc2)OC1(C)C.[Fe+2].c1cc[cH-]c1 [2b]
logP (Hydrolyzed Prodrug) [1]: 3.10 ± 0.12 | logP (Prodrug) [1]: 5.37 ± 0.10 | Solubility [2]: 100 µM | first signs of precipitation ([2]; immediately after dilution in RPMI 1640, FBS 5%): 50 µM | ROS Release Efficacy [3]: 0.76 ± 0.19 | IC50 (A2780 cells; A2780, 24 h incubation): 24.7 ± 0.6 µM | IC50 (A2780 cells; A2780, 48 h incubation): 18.5 ± 1.3 µM | IC50 (A2780 cells; A2780, 96 h incubation): 12 ± 3 µM | cancer cell specificity, primary CLL cells vs MNCs [4]: some specificity towards primary CLL cells

CCOC(=O)CCCCCn1cc(CN(C(=O)OCc2ccc(B(O)O)cc2)[c-]2cccc2)nn1.[Fe+2].c1cc[cH-]c1 [1_BA, reference compound]
logP (Hydrolyzed Prodrug) [1]: 2.83 ± 0.07

CN(C)C(=O)c1ccc(COC(=O)N(Cc2cn(Cc3ccc(Cn4cc(Cc5ccccc5)nn4)cc3)nn2)[c-]2cccc2)cc1.[Fe+2].c1cc[cH-]c1 [2c_c]
logP (Prodrug) [1]: 3.90 ± 0.08 | Solubility [2]: 55 ± 5 µM | ROS Release Efficacy [3]: 0.050 ± 0.003 | IC50 (A2780 cells; A2780, 96 h incubation): 6.1 ± 1.5 µM

[Fe+2].c1cc[cH-]c1.c1ccc(CN[c-]2cccc2)cc1 [compound 4]
IC50 (A2780 cells; A2780, 48 h incubation): > 50 µM

C1=CCC=C1.CC1(C)OB(c2ccc(COC(=O)N(Cc3cn(CCC[P+](c4ccccc4)(c4ccccc4)c4ccccc4)nn3)C3C=CC=C3)cc2)OC1(C)C.[Fe+2] [5c, reference compound]
IC50 (A2780 cells; A2780, 24 h incubation): 10 ± 3 µM | IC50 (A2780 cells; A2780, 48 h incubation): 5 ± 2 µM | IC50 (A2780 cells; A2780, 96 h incubation): 5 ± 2 µM | IC50 (BL-2 cells): 5 µM | IC50 (Jurkat cells): 20 µM

[Fe+2].c1cc[cH-]c1.c1ccc(Cn2cc(CN[c-]3cccc3)nn2)cc1 [compound 3]
IC50 (A2780 cells; A2780, 48 h incubation): > 50 µM

O=C(OCc1ccc(B(O)O)cc1)N(Cc1cn(Cc2ccc(Cn3cc(Cc4ccccc4)nn3)cc2)nn1)[c-]1cccc1.[Fe+2].c1cc[cH-]c1 [2c_BA]
logP (Hydrolyzed Prodrug) [1]: 3.23 ± 0.11
